Tests used:
EGFR del746-750 T790M = molecular target: T1, EGFR del746-750 T790M (Homo sapiens, UniProt P00533, DEL746-750/T790M); experiment: EGFR del746-750 T790M biochemical assay (Caliper mobility shift); details: 5 μM ATP; apparent Ki (Morrison fit) converted by Cheng-Prusoff, Km of ATP 2.1 μM; read-out: EGFR(T790M/d746-750) Ki
T1 construct: purchased Carna Biosciences 08-528
Method: The exemplified compounds described herein were tested according to the assay below. The enzyme data reported in Tables 4-5 is generally a representative of multiple experiments.
Reactions proceed for 30 minutes at room temperature (22° C.) and are terminated with 80 mM 2,2′,2″,2″′-(ethane-1,2-diyldinitrilo)tetraacetic acid (EDTA). Product is detected using the Caliper mobility shift detection method where product and substrate are electrophoretically separated and measured.

EGFR T790M L858R = molecular target: T2, EGFR T790M L858R (Homo sapiens, UniProt P00533, L858R/T790M); experiment: EGFR T790M L858R biochemical assay (Caliper mobility shift); details: 5 μM ATP; apparent Ki (Morrison fit) converted by Cheng-Prusoff, Km of ATP 1.3 μM
T2 construct: purchased Life Technologies PV4879
How it was run: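 Caliper mobility-shift read-out, electrophoretic separation of substrate from product, after a 30-minute kinase reaction at 22 °C. EDTA at 80 mM terminates each reaction.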

[1] = molecular target: T3, phosphor-EGFR in H1975(L585R/T790M) mutant EGFR expressing cells (Homo sapiens, UniProt P00533, L858R/T790M); experiment: H1975 pEGFR MSD cellular assay; type: cell-based; details: NCI-H1975 cells, serum starved, 1 hour compound incubation, pEGFR Tyr1068 MSD; read-out: HI975 pEGFR EC50
T3 construct: host or cells: NCI-H1975
How it was run: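 Phospho-EGFR read by MSD electrochemiluminescence: capture with anti-pEGFR antibody (overnight, 4° C), detection with SULFO-TAG anti-total EGFR (1 hour, room temperature). Before lysis, H1975 cells starved of serum overnight got compound for 1 hour at 37° C, 0.5% DMSO final. EC50 via four-parameter logistic regression of percent inhibition.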

[2] = system: H1975 (EGFR T790M/L858R) cell proliferation; experiment: H1975 proliferation assay (Cell Titer-Glo); type: cell-based; details: Homo sapiens, NCI-H1975, 72 h, NCI-H1975 cells, 72 hour incubation, read-out: H1975 antiproliferative EC50
Method: H1975 Proliferation Assays
All cell culture reagents were purchased from Invitrogen/Gibco. Cells are cultured at 37° C. at 5% CO2 and split as recommended by ATCC.

T3 sequence (P00533 25-1210 T790M/L858R): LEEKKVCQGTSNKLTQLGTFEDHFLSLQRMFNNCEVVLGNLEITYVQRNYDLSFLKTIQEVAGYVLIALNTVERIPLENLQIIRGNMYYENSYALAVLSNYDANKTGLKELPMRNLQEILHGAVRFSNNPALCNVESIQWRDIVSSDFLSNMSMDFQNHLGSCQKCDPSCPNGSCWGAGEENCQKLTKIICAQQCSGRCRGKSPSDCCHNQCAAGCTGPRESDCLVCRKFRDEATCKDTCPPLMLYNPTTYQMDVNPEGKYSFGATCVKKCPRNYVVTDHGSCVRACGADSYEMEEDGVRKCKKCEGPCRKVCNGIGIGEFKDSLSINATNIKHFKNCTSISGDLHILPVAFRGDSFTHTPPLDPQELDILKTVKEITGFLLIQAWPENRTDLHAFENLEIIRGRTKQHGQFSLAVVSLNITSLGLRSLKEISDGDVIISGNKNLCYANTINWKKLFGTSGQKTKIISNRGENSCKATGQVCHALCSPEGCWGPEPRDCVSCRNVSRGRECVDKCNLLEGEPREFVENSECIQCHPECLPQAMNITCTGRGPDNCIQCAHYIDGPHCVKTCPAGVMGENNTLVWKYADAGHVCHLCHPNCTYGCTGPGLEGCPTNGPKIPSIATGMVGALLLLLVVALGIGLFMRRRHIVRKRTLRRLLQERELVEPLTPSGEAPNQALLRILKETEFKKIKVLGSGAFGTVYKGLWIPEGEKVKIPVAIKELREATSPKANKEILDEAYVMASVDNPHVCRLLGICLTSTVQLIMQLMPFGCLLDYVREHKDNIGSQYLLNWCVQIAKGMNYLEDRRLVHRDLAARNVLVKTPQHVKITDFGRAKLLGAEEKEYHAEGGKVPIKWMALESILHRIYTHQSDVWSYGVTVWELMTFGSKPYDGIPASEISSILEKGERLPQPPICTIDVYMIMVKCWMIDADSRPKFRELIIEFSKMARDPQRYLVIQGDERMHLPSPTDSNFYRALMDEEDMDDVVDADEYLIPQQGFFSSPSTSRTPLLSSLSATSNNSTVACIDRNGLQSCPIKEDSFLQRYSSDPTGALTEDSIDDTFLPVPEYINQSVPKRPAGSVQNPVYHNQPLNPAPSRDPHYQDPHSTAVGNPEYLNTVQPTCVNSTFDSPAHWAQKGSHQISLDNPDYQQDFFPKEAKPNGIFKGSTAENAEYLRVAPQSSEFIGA
T2 sequence (P00533 25-1210 T790M/L858R): as above
T1 sequence (P00533 with tags, fused parts or gaps DEL746-750/T790M limits assumed): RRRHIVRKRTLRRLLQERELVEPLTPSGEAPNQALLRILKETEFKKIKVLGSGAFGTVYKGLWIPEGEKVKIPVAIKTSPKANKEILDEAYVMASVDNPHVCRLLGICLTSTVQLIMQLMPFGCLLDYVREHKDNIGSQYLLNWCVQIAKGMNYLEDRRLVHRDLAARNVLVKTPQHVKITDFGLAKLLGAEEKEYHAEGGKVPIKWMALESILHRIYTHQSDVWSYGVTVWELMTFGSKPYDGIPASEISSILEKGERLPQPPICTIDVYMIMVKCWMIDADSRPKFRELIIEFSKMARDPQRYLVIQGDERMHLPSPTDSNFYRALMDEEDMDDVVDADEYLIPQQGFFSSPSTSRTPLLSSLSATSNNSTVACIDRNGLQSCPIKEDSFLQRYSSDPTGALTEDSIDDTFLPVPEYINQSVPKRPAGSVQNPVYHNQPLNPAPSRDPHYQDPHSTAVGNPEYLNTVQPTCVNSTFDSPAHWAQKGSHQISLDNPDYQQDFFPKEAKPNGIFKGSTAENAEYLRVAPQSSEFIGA

Structure (SMILES)	Ki (EGFR del746-750 T790M) [nM]	Ki (EGFR T790M L858R) [nM]	EC50 [1] [nM]	EC50 [2] [nM]
CC(C)n1nc(N2CC(C)(C)NC2=O)c2cnc(Nc3ccnc(N4CCC(O)C(F)C4)n3)cc21 (racemic) [Example 88, (±)-1-(6-(2-(cis-3-Fluoro-4-hydroxypiperidin-1-yl)pyrimidin-4-ylamino)-1-isopropyl-1H-pyrazolo[4,3-c]pyridin-3-yl)-4,4-dimethylimidazolidin-2-one]	4.3	1.8	187	489
CCC(C)n1nc(N2CC3(COC3)C2)c2cnc(Nc3ccnc(OCC(C)(C)S(C)(=O)=O)n3)cc21 (racemic) [Example 97, [1-(sec-Butyl)-3-(2-oxa-6-azaspiro[3.3]hept-6-yl)-1H-pyrazolo[4,3-c]pyridin-6-yl]-[2-(2-methanesulfonyl-2-methylpropoxy)pyrimidin-4-yl]amine]	5.2	3.2	233	1130
CCC(C)n1nc(N2CCNC2=O)c2cnc(Nc3ccnc(OCC(C)(C)S(C)(=O)=O)n3)cc21 (racemic) [Example 99, 1-{1-sec-Butyl-6-[2-(2-methanesulfonyl-2-methylpropoxy)pyrimidin-4-ylamino]-1H-pyrazolo[4,3-c]pyridin-3-yl}imidazolidin-2-one]	5.6	3.2	617	1170
CCC(C)n1nc(N2CCNC2=O)c2cnc(Nc3ccnc(NCC(C)(C)S(C)(=O)=O)n3)cc21 (racemic) [Example 101, 1-{1-sec-Butyl-6-[2-(2-methanesulfonyl-2-methylpropylamino)pyrimidin-4-ylamino]-1H-pyrazolo[4,3-c]pyridin-3-yl}imidazolidin-2-one]	2.4	2.3	568	1830
CCC(C)n1nc(N2CCNC2=O)c2cnc(Nc3ccnc(N4CCC(S(C)(=O)=O)CC4)n3)cc21 (racemic) [Example 102, 1-{1-sec-Butyl-6-[2-(4-methanesulfonylpiperidin-1-yl)pyrimidin-4-ylamino]-1H-pyrazolo[4,3-c]pyridin-3-yl}imidazolidin-2-one]	12.4	2.2	710	1150
CO[C@H]1CCN(c2nccc(Nc3cc4c(cn3)c(N3CC5(COC5)C3)nn4C(C)C)n2)C[C@H]1F (racemic) [Example 103, [2-((cis)-(±)-3-Fluoro-4-methoxypiperidin-1-yl)pyrimidin-4-yl]-[1-isopropyl-3-(2-oxa-6-azaspiro[3.3]hept-6-yl)-1H-pyrazolo[4,3-c]pyridin-6-yl]amine]	3.9	1.1	23.1	248
CC[C@H](C)n1nc(N2CC3(COC3)C2)c2cnc(Nc3ccnc(N4CC[C@](C)(O)[C@H](F)C4)n3)cc21 (relative stereo) [Example 65, (3R*,4S*)-1-{4-[1-((S)-sec-Butyl)-3-(2-oxa-6-azaspiro[3.3]hept-6-yl)-1H-pyrazolo[4,3-c]pyridin-6-ylamino]pyrimidin-2-yl}-3-fluoro-4-methylpiperidin-4-ol]	9.6	3.6	126	874
CC[C@H](C)n1nc(N2CC[C@@H](O)C2)c2cnc(Nc3ccnc(N4CC[C@](C)(O)[C@H](F)C4)n3)cc21 (relative stereo) [Example 69, (3R*,4S*)-1-{4-[1-((S)-sec-Butyl)-3-((R)-3-hydroxypyrrolidin-1-yl)-1H-pyrazolo[4,3-c]pyridin-6-ylamino]pyrimidin-2-yl}-3-fluoro-4-methylpiperidin-4-ol]	2.9	1.7	67.9	521
CC[C@H](C)n1nc(N2CC[C@H](O)C2)c2cnc(Nc3ccnc(N4CC[C@](C)(O)[C@H](F)C4)n3)cc21 (relative stereo) [Example 70, (3R*,4S*)-1-{4-[1-((S)-sec-Butyl)-3-((S)-3-hydroxypyrrolidin-1-yl)-1H-pyrazolo[4,3-c]pyridin-6-ylamino]pyrimidin-2-yl}-3-fluoro-4-methylpiperidin-4-ol]	2.3	2	83	371

Next, values leading:

Ki (EGFR del746-750 T790M) [nM]	Ki (EGFR T790M L858R) [nM]	EC50 [1] [nM]	EC50 [2] [nM]	Structure (SMILES)
6.3	2.7	349	2720	CC(C)n1nc(N2CC(O)(C(F)(F)F)C2)c2cnc(Nc3ccnc(N4CC[C@H](O)[C@H](F)C4)n3)cc21 (racemic) [Example 129, (±)-cis-3-Fluoro-1-(4-(3-(3-hydroxy-3-(trifluoromethyl)azetidin-1-yl)-1-isopropyl-1H-pyrazolo[4,3-c]pyridin-6-ylamino)pyrimidin-2-yl)piperidin-4-ol]
3.3	1.8	261	1430	CC(C)n1nc(N2CC(F)(CO)C2)c2cnc(Nc3ccnc(N4CC[C@H](O)[C@H](F)C4)n3)cc21 (racemic) [Example 130, (±)-cis-3-Fluoro-1-(4-(3-(3-fluoro-3-(hydroxymethyl)azetidin-1-yl)-1-isopropyl-1H-pyrazolo[4,3-c]pyridin-6-ylamino)pyrimidin-2-yl)piperidin-4-ol]
4.3	1.7	150	332	CC(C)n1nc(N2CCCC2=O)c2cnc(Nc3ccnc(N4CC[C@H](O)[C@H](F)C4)n3)cc21 (racemic) [Example 133, (±)-1-(6-(2-(cis-3-Fluoro-4-hydroxypiperidin-1-yl)pyrimidin-4-ylamino)-1-isopropyl-1H-pyrazolo[4,3-c]pyridin-3-yl)pyrrolidin-2-one]
6.1	3.1	288	649	C[C@@H](n1nc(N2CC[C@@H](O)C2)c2cnc(Nc3ccnc(N4CC[C@](C)(O)[C@H](F)C4)n3)cc21)C(F)(F)F (racemic) [Example 140, (3RS,4SR)-3-Fluoro-1-(4-(3-((R)-3-hydroxypyrrolidin-1-yl)-1-((R*)-1,1,1-trifluoropropan-2-yl)-1H-pyrazolo[4,3-c]pyridin-6-ylamino)pyrimidin-2-yl)-4-methylpiperidin-4-ol]
3.9	2.4	15.8	227	CCC(C)n1nc(N2CC3(COC3)C2)c2cnc(Nc3ccnc(N4C[C@@H](F)[C@@H](O)C(C)(C)C4)n3)cc21 (mixture of isomers) [Example 147, (4SR,5RS)-1-(4-((1-(sec-Butyl)-3-(2-oxa-6-azaspiro[3.3]heptan-6-yl)-1H-pyrazolo[4,3-c]pyridin-6-yl)amino)pyrimidin-2-yl)-5-fluoro-3,3-dimethylpiperidin-4-ol]
2.5	1.8	22.3	225	CC(C)n1nc(N2CC[C@@H](O)C2)c2cnc(Nc3ccnc(N4C[C@@H](F)[C@@H](O)C(C)(C)C4)n3)cc21 (racemic) [Example 148, cis-5-Fluoro-1-(4-(3-((R)-3-hydroxypyrrolidin-1-yl)-1-isopropyl-1H-pyrazolo[4,3-c]pyridin-6-ylamino)pyrimidin-2-yl)-3,3-dimethylpiperidin-4-ol]
4.8	2	1410	> 10000	CC(C)n1nc(N2CC(O)CC2=O)c2cnc(Nc3ccnc(N4CC[C@H](O)[C@H](F)C4)n3)cc21 (mixture of isomers) [Example 173, (±)-1-(6-(2-(cis-3-Fluoro-4-hydroxypiperidin-1-yl)pyrimidin-4-ylamino)-1-isopropyl-1H-pyrazolo[4,3-c]pyridin-3-yl)-4-hydroxypyrrolidin-2-one]
3.8	1.8	141	801	CC(C)n1nc(N2CC(F)(F)C2)c2cnc(Nc3ccnc(N4CC[C@H](O)[C@H](F)C4)n3)cc21 (racemic) [Example 174, (±)-cis-1-(4-(3-(3,3-Difluoroazetidin-1-yl)-1-isopropyl-1H-pyrazolo[4,3-c]pyridin-6-ylamino)pyrimidin-2-yl)-3-fluoropiperidin-4-ol]
2.6	1.4	97.8	766	CC(C)n1nc(N2CC3(CC(O)C3)C2)c2cnc(Nc3ccnc(N4CC[C@H](O)[C@H](F)C4)n3)cc21 (racemic) [Example 175, (±)-2-(6-((2-((cis)-3-Fluoro-4-hydroxypiperidin-1-yl)pyrimidin-4-yl)amino)-1-isopropyl-1H-pyrazolo[4,3-c]pyridin-3-yl)-2-azaspiro[3.3]heptan-6-ol]
76.7	34.7	1650	8270	CC(C)n1nc(NC(C)(C)C#N)c2cnc(Nc3ccnc(N4CC[C@H](O)[C@H](F)C4)n3)cc21 (racemic) [Example 183, (±)-2-(6-(2-(cis-3-Fluoro-4-hydroxypiperidin-1-yl)pyrimidin-4-ylamino)-1-isopropyl-1H-pyrazolo[4,3-c]pyridin-3-ylamino)-2-methylpropanenitrile]
